For the first experiment, the system named is Slc:ddY mice. The experiment in a line: Novel object recognition test in mice (mORT), evaluation of cognitive function. The format is in vivo. To be noted: 3 mg/kg (oral), administered prior to the 1st trial, 2nd trial 24 hours after. The procedure:
Evaluation of Cognitive Function with Mice in Novel Object Recognition Test (Hereinafter. Referred to as “mORT”)
Slc:ddY mice (25 to 30 g, male, Japan SLC) can be used in the novel object recognition test wherein the interval between the 1st trial (training) and the 2nd trial (test) correlates with the memory loss for the objects used in the 1st trial, and a significant memory-loss is observed when the 2nd trial is performed 24 hours after the 1st trial. According to the test mechanism, the present compounds were administered prior to the 1st trial, and the enhancement effect on memory in the 2nd trial was evaluated.
T1 sequence (P36544 23-502): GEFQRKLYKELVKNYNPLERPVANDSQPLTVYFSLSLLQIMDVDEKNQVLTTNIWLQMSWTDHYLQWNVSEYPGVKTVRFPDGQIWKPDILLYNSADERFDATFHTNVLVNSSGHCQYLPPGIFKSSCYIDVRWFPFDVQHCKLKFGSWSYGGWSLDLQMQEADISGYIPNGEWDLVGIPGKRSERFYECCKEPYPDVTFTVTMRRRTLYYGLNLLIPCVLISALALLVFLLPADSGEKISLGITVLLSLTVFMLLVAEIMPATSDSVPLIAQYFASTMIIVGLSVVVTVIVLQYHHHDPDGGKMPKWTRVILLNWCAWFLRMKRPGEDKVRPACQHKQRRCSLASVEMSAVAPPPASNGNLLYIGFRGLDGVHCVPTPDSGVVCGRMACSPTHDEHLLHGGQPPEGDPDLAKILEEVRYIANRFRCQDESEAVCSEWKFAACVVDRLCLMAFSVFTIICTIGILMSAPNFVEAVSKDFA
`O=C(NC1CCCCC1)N1CCC(n2cnc(-c3cccc(F)c3)c2)CC1` [Example 1, N-Cyclohexyl-4-[4-(3-fluorophenyl)-1H-imidazol-1-yl]piperidine-1-carboxamide]: the “enhancement effect on memory in the 2nd trial (mORT)” value (“enhancement effect on memory” for short) was “significant memory enhancing effect”.

For `CC(C)(F)C(=O)N[C@H]1CC[C@@H](n2cnc(-c3ccc(F)cc3)c2Cl)CC1` [Example 183, N-{cis-4-[5-chloro-4-(4-fluorophenyl)-1H-imidazol-1-yl]cyclohexyl}-2-fluoro-2-methylpropanamide], the “enhancement effect on memory” value is “significant memory enhancing effect”.

For `CC(C)(F)C(=O)N[C@H]1CC[C@@H](n2cnc(-c3ccc(Cl)cc3)c2)CC1` [Example 280, N-{cis-4-[4-(4-chlorophenyl)-1H-imidazol-1-yl]cyclohexyl}-2-fluoro-2-methylpropanamide], the “enhancement effect on memory” value is given as “significant memory enhancing effect”. Same read-out and setting: in the case of `O=C(NC1CCOCC1)[C@H]1CC[C@@H](n2cnc(-c3ccc(F)c(F)c3)c2Cl)CC1` [Example 370, cis-4-[5-chloro-4-(3,4-difluorophenyl)-1H-imidazol-1-yl]-(tetrahydro-2H-pyran-4-yl)cyclohexanecarboxamide] it was “significant memory enhancing effect”; in that of `O=C(C1CCC(F)(F)CC1)N1[C@@H]2CC[C@H]1C[C@H](n1cnc(-c3ccc(F)cc3)c1Cl)C2` [Example 452, {(3-exo)-3-[5-chloro-4-(4-fluorophenyl)-1H-imidazol-1-yl]-8-azabicyclo[3.2.1]oct-8-yl}(4,4-difluorocyclohexyl)methanone], “significant memory enhancing effect”.

In the next experiment the test system is Slc:Wistar rats. In words: Y-shaped maze test in rats (Y-maze test), scopolamine-induced cognitive impairment. The format is in vivo. To be noted: 3 mg/kg (oral), treated prior to 0.6 mg/kg scopolamine HBr s.c. The procedure:
Evaluation on Improvement Against Cognitive Impairment with Rats in Y-Shaped Maze Test (Hereinafter, Referred to as “Y-Maze Test”)
In Y-maze test, 0.6 mg/kg scopolamine HBr (cat#S0929, Sigma Aldrich, Japan) can be subcutaneously administered to Slc:Wistar rats (280 to 300 g, male, Japan SLC) to cause cognitive impairment and decrease the percentage of spontaneous alternation behavior. According to the test mechanism, the present compounds were treated prior to the administration of scopolamine, and the improvement effect on cognitive impairment is evaluated.
Consider `O=C(NC1CCCCC1)N1CCC(n2cnc(-c3cccc(F)c3)c2)CC1` [Example 1, N-Cyclohexyl-4-[4-(3-fluorophenyl)-1H-imidazol-1-yl]piperidine-1-carboxamide], for which the “improvement effect on cognitive impairment (Y-maze, spontaneous alternation behavior)” value was “significant improvement effect on memory disorder”. Still for that read-out and setting: in the case of `CC(C)(F)C(=O)N[C@H]1CC[C@@H](n2cnc(-c3ccc(F)cc3)c2Cl)CC1` [Example 183, N-{cis-4-[5-chloro-4-(4-fluorophenyl)-1H-imidazol-1-yl]cyclohexyl}-2-fluoro-2-methylpropanamide] it was “significant improvement effect on memory disorder”.

Another experiment has as its target T1, human α7 nAChR (Homo sapiens, UniProt P36544).
T1 construct: expressed in transfected cells
The experiment in a line: Evaluation of PAM activity with human α7 nACh receptor stably expressing cells (aequorin luminescence, FDSS7000). The experiment is classed as cell-based. Conditions: 1 μM test compound (values marked *, footnote of Table 25); ACh at EC20; ratio of RLU (Max-Min) to control wells; read-out: α7PAM (%) @1 μM. The method in brief:
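Human α7 nAChR stable cells loaded with 4 μM Viviren (final) for 4 h at room temperature in the dark. Compounds in Hanks/20 mM HEPES/0.2% BSA were added and luminescence recorded on FDSS7000. PAM activity = RLU (Max-Min) ratio of test wells to control wells.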
For the compound `N#Cc1c(-c2cc(F)ccc2F)ncn1[C@@H]1C[C@H]2CC[C@@H](C1)N2C(=O)NC1CCC(F)(F)CC1` [Example 423], the activity at 1 µM turned out to be 390%. Still for that read-out and setting: the value for `O=C(C1CCC(F)(F)CC1)N1[C@@H]2CC[C@H]1C[C@@H](n1cnc(-c3cccc(F)c3F)c1)C2` [Example 429] was 111%; that for `O=C(C1CCC(F)(F)CC1)N1[C@@H]2CC[C@H]1C[C@@H](n1cnc(-c3cc(F)ccc3F)c1)C2` [Example 430] was 110%; that for `N#Cc1c(-c2ccc(F)cc2F)ncn1[C@H]1C[C@H]2CC[C@@H](C1)N2C(=O)C1CCC(F)(F)CC1` [Example 443] was 368%. Still for that read-out and setting: the value for `O=C(C1CCC(F)(F)CC1)N1[C@@H]2CC[C@H]1C[C@H](n1cnc(-c3cc(F)ccc3F)c1)C2` [Example 451] was 143%.

For `N#Cc1c(-c2cccc(F)c2F)ncn1[C@@H]1C[C@H]2CC[C@@H](C1)N2C(=O)C1CCC(F)(F)CC1` [Example 463], the activity at 1 µM is 181%.

As for `N#Cc1c(-c2cc(F)ccc2F)ncn1[C@@H]1C[C@H]2CC[C@@H](C1)N2C(=O)C1CCC(F)(F)CC1` [Example 464], the activity at 1 µM worked out at 124%.

Staying with this experiment, now noted: 10 μM test compound; ACh at EC20; ratio of RLU (Max-Min) to control wells; read-out: α7PAM (%) @10 μM.
For the compound `O=C(NC1CCCCC1)N1CCC(n2cnc(-c3cccc(F)c3)c2)CC1` [Example 1, N-Cyclohexyl-4-[4-(3-fluorophenyl)-1H-imidazol-1-yl]piperidine-1-carboxamide], the activity at 10 µM came out at 836%.

With `CC(C)(F)C(=O)N[C@H]1CC[C@@H](n2cnc(-c3ccc(F)cc3)c2Cl)CC1` [Example 183, N-{cis-4-[5-chloro-4-(4-fluorophenyl)-1H-imidazol-1-yl]cyclohexyl}-2-fluoro-2-methylpropanamide], the activity at 10 µM was found to be 791%.

As to `CC(C)(F)C(=O)N[C@H]1CC[C@@H](n2cnc(-c3ccc(Cl)cc3)c2)CC1` [Example 280, N-{cis-4-[4-(4-chlorophenyl)-1H-imidazol-1-yl]cyclohexyl}-2-fluoro-2-methylpropanamide], the activity at 10 µM was found to be 787%. The same measure, in the same setting: in the case of `O=C(NC1CCCCC1)N1[C@@H]2CC[C@H]1C[C@H](n1cnc(-c3cccc(F)c3F)c1)C2` [Example 410] it was 197%; in that of `O=C(NC1CCCCC1)N1[C@@H]2CC[C@H]1C[C@H](n1cnc(-c3cc(F)ccc3F)c1)C2` [Example 411], 229%; in that of `O=C(NC1CCC(F)(F)CC1)N1[C@@H]2CC[C@H]1C[C@H](n1cnc(-c3cc(F)ccc3F)c1)C2` [Example 412], 423%.

For the compound `O=C(NC1CCC(F)(F)CC1)N1[C@@H]2CC[C@H]1C[C@H](n1cnc(-c3ccc(F)cc3F)c1Cl)C2` [Example 415], the activity at 10 µM was determined as 997%. The same measure, in the same setting: in the case of `O=C(NC1CCC(F)(F)CC1)N1[C@@H]2CC[C@H]1C[C@H](n1cnc(-c3cc(F)ccc3F)c1Cl)C2` [Example 419] it was 913%. On the same count and under the same terms, in the case of `N#Cc1c(-c2ccc(F)cc2)ncn1[C@@H]1C[C@H]2CC[C@@H](C1)N2C(=O)NC1CCCCC1` [Example 421] it was 426%; in that of `N#Cc1c(-c2ccc(F)cc2F)ncn1[C@@H]1C[C@H]2CC[C@@H](C1)N2C(=O)NC1CCC(F)(F)CC1` [Example 422], 131%. The same measure, in the same setting: the value for `N#Cc1c(-c2cccc(F)c2F)ncn1[C@@H]1C[C@H]2CC[C@@H](C1)N2C(=O)NC1CCC(F)(F)CC1` [Example 424] was 210%. As for `O=C(C1CCC(F)(F)CC1)N1[C@@H]2CC[C@H]1C[C@@H](n1cnc(-c3ccc(F)cc3)c1)C2` [Example 425], the activity at 10 µM stood at 155%. On the same count and under the same terms, the value for `O=C(C1CCC(F)(F)CC1)N1[C@@H]2CC[C@H]1C[C@@H](n1cnc(-c3ccc(F)cc3F)c1)C2` [Example 426] was 308%; that for `O=C(C1CCC(F)(F)CC1)N1[C@@H]2CC[C@H]1C[C@@H](n1cnc(-c3ccccc3F)c1)C2` [Example 427] was 305%; that for `O=C(C1CCC(F)(F)CC1)N1[C@@H]2CC[C@H]1C[C@@H](n1cnc(-c3ccccc3)c1)C2` [Example 428] was 144%. Still for that read-out and setting: in the case of `O=C(C1CCC(F)(F)CC1)N1[C@@H]2CC[C@H]1C[C@@H](n1cnc(-c3ccc(F)cc3)c1Cl)C2` [Example 431] it was 836%; in that of `O=C(C1CCC(F)(F)CC1)N1[C@@H]2CC[C@H]1C[C@@H](n1cnc(-c3ccccc3F)c1Cl)C2` [Example 434], 512%; in that of `O=C(C1CCOCC1)N1[C@@H]2CC[C@H]1C[C@@H](n1cnc(-c3ccc(F)cc3F)c1Cl)C2` [Example 436], 300%. Consider `O=C(C1CCC(F)(F)CC1)N1[C@@H]2CC[C@H]1C[C@@H](n1cnc(-c3cc(F)ccc3F)c1Cl)C2` [Example 437], for which the activity at 10 µM was found to be 533%. On the same count and under the same terms, in the case of `O=C(C1CCOCC1)N1[C@@H]2CC[C@H]1C[C@@H](n1cnc(-c3cc(F)ccc3F)c1Cl)C2` [Example 438] it was 235%; in that of `O=C(C1CCC(F)(F)CC1)N1[C@@H]2CC[C@H]1C[C@@H](n1cnc(-c3cccc(F)c3F)c1Cl)C2` [Example 439], 813%. The same measure, in the same setting: the value for `O=C(C1CCOCC1)N1[C@@H]2CC[C@H]1C[C@@H](n1cnc(-c3cccc(F)c3F)c1Cl)C2` [Example 440] was 508%; that for `N#Cc1c(-c2cc(F)ccc2F)ncn1[C@H]1C[C@H]2CC[C@@H](C1)N2C(=O)C1CCC(F)(F)CC1` [Example 444] was 208%.

For `N#Cc1c(-c2cccc(F)c2F)ncn1[C@H]1C[C@H]2CC[C@@H](C1)N2C(=O)C1CCC(F)(F)CC1` [Example 445], the activity at 10 µM was found to be 272%. `O=C(C1CCC(F)(F)CC1)N1[C@@H]2CC[C@H]1C[C@H](n1cnc(-c3ccc(F)cc3)c1)C2` [Example 446]: the activity at 10 µM is 143%. Consider `O=C(C1CCC(F)(F)CC1)N1[C@@H]2CC[C@H]1C[C@H](n1cnc(-c3ccc(F)cc3F)c1)C2` [Example 447], for which the activity at 10 µM was 268%.

With `O=C(C1CCC(F)(F)CC1)N1[C@@H]2CC[C@H]1C[C@H](n1cnc(-c3ccccc3F)c1)C2` [Example 448], the activity at 10 µM came out at 276%.

Consider `O=C(C1CCC(F)(F)CC1)N1[C@@H]2CC[C@H]1C[C@H](n1cnc(-c3ccccc3)c1)C2` [Example 449], for which the activity at 10 µM is 183%. The same measure, in the same setting: in the case of `O=C(C1CCC(F)(F)CC1)N1[C@@H]2CC[C@H]1C[C@H](n1cnc(-c3cccc(F)c3F)c1)C2` [Example 450] it was 128%; in that of `O=C(C1CCC(F)(F)CC1)N1[C@@H]2CC[C@H]1C[C@H](n1cnc(-c3cccc(F)c3F)c1Cl)C2` [Example 457], 865%.

On to `O=C(C1CCOCC1)N1[C@@H]2CC[C@H]1C[C@H](n1cnc(-c3cccc(F)c3F)c1Cl)C2` [Example 458], for which the activity at 10 µM was 434%.

On to `O=C(C1CCC(F)(F)CC1)N1[C@@H]2CC[C@H]1C[C@H](n1cnc(-c3cc(F)ccc3F)c1Cl)C2` [Example 459], for which the activity at 10 µM is 730%. On the same count and under the same terms, in the case of `O=C(C1CCOCC1)N1[C@@H]2CC[C@H]1C[C@H](n1cnc(-c3cc(F)ccc3F)c1Cl)C2` [Example 460] it was 390%; in that of `N#Cc1c(-c2ccc(F)cc2)ncn1[C@@H]1C[C@H]2CC[C@@H](C1)N2C(=O)C1CCC(F)(F)CC1` [Example 461], 162%.

For `N#Cc1c(-c2ccc(F)cc2F)ncn1[C@@H]1C[C@H]2CC[C@@H](C1)N2C(=O)C1CCC(F)(F)CC1` [Example 462], the activity at 10 µM was found to be 384%.

Still in this experiment, the particulars now being: comparison across Tables 18 to 25.
Take `O=C(NC1CCOCC1)N1[C@@H]2CC[C@H]1C[C@H](n1cnc(-c3ccc(F)cc3F)c1Cl)C2` [Example 416]: the “PAM activity for α7 nAChR (in words)” value is on record as “stronger PAM activity than others”.

The values above are taken from US20150259344A1, “IMIDAZOLE DERIVATIVE” (DAINIPPON SUMITOMO PHARMA CO., LTD., priority 2012, published 2015).
